# Assay results reported in patent publication US12252488B2 (Nimbus Saturn, Inc., priority 2021, dated 2025).
# pIC50: −log10 of the molar value.
# Biological target: T1, HPK1 (Homo sapiens, UniProt Q92918)
# T1 construct: purchased Invitrogen
# Test: HPK1 biochemical enzyme assay (microfluidic mobility shift assay)
# Details: 1000 uM (1 mM) ATP; Caliper mobility shift; 1.5 nM HPK1; 30 min preincubation; read-out: HPK1 1000UMATP caliper IC50
# How it was run: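 Microfluidic mobility-shift readout with 1.5 nM HPK1 in pH 7.4 buffer; compounds (ten-point curves, top 3 μM final) preincubated 30 min with enzyme/substrate. Reaction started with 1 mM ATP and 1 μM substrate plus 5 mM MgCl2, run 60 min at RT. IC50 values binned into activity classes.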
# T1 sequence (Q92918 whole entry): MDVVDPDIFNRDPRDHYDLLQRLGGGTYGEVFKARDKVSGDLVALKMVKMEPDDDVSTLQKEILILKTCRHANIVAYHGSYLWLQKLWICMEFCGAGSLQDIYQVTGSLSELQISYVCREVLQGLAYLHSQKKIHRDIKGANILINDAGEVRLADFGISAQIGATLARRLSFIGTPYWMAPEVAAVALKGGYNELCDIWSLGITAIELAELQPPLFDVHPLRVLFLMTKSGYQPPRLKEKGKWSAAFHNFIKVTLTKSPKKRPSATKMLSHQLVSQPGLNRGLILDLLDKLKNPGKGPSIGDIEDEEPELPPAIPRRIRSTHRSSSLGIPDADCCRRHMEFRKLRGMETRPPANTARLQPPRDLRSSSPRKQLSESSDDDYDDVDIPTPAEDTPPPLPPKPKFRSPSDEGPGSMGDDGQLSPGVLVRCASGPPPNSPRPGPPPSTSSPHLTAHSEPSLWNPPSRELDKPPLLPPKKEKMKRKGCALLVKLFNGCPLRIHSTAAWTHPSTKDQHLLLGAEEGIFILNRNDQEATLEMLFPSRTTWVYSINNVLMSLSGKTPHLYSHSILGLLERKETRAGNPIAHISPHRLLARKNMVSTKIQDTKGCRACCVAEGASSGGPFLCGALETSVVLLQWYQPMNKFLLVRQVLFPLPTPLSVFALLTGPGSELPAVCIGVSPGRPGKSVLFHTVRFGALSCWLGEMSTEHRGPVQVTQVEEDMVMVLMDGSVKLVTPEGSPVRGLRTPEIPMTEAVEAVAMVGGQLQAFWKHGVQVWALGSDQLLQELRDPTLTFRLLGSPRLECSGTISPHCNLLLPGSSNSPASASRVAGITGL
row,Compound,pIC50
1,"O=c1[nH]ccc2nc(N3CCC[C@H](O)C3)cc(Nc3ccc(N4CCC(O)CC4)cn3)c12 [I-81, 2-[(3S)-3-hydroxy-1-piperidyl]-4-[[5-(4-hydroxy-1-piperidyl)-2-pyridyl]amino]-6H-1,6-naphthyridin-5-one]",≥ 7.00
2,"O=c1[nH]ccc2nc(N3CCC[C@@H](O)C3)cc(Nc3ccc(N4CCC(O)CC4)cn3)c12 [I-82, 2-[(3R)-3-hydroxy-1-piperidyl]-4-[[5-(4-hydroxy-1-piperidyl)-2-pyridyl]amino]-6H-1,6-naphthyridin-5-one]",6.00 to 7.00
3,"O=c1[nH]ccc2nc(N3CCCCC3)cc(Nc3ccc(N4CCC(O)CC4)cn3)c12 [I-83, 4-[[5-(4-hydroxy-1-piperidyl)-2-pyridyl]amino]-2-(1-piperidyl)-6H-1,6-naphthyridin-5-one]",6.00 to 7.00
4,"O=c1[nH]ccc2nc(N3CCCC3)cc(Nc3ccc(N4CCC(O)CC4)cn3)c12 [I-84, 4-[[5-(4-hydroxy-1-piperidyl)-2-pyridyl]amino]-2-pyrrolidin-yl-6H-1,6-naphthyridin-5-one]",6.00 to 7.00
5,"CNC(=O)c1ccc(F)c(-c2cc(Nc3ccc(N4CCC(O)CC4)cn3)c3c(=O)[nH]ccc3n2)c1 [I-85, 4-fluoro-3-[4-[[5-(4-hydroxy-1-piperidyl)-2-pyridyl]amino]-5-oxo-6H-1,6-naphthyridin-2-yl]-N-methyl-benzamide]",6.00 to 7.00
6,"Cc1cc(F)c(-c2cc(Nc3ccc(N4CCC(O)CC4)cn3)c3c(=O)[nH]ccc3n2)cc1C [I-86, 2-(2-fluoro-4,5-dimethyl-phenyl)-4-[[5-(4-hydroxy-1-piperidyl)-2-pyridyl]amino]-6H-1,6-naphthyridin-5-one]",6.00 to 7.00
7,"O=c1[nH]ccc2nc(N3CC[C@@H](O)C3)cc(Nc3ccc(N4CCC(O)CC4)cn3)c12 [I-87, 4-[[5-(4-hydroxy-1-piperidyl)-2-pyridyl]amino]-2-[(3R)-3-hydroxy-pyrrolidin-1-yl]-6H-1,6-naphthyridin-5-one]",6.00 to 7.00
8,"O=c1[nH]ccc2nc(N3CC[C@H](O)C3)cc(Nc3ccc(N4CCC(O)CC4)cn3)c12 [I-88, 4-[[5-(4-hydroxy-1-piperidyl)-2-pyridyl]amino]-2-[(3S)-3-hydroxy-pyrrolidin-1-yl]-6H-1,6-naphthyridin-5-one]",≥ 7.00
9,"Cc1c[nH]c(=O)c2c(Nc3ccc(N4CCC(O)CC4)cn3)cc(C(C)C)nc12 [I-89, 4-[[5-(4-hydroxy-1-piperidyl)-2-pyridyl]amino]-2-isopropyl-8-methyl-6H-1,6-naphthyridin-5-one]",< 6.00
10,"Cc1c[nH]c(=O)c2c(Nc3ccc(N4CCC(O)CC4)cn3)ccnc12 [I-90, 4-[[5-(4-hydroxy-1-piperidyl)-2-pyridyl]amino]-8-methyl-6H-1,6-naphthyridin-5-one]",6.00 to 7.00
11,"COc1ccc(F)c(-c2cc(Nc3ccc(N4CCNCC4)cn3)c3c(=O)[nH]ccc3n2)c1F [I-91, 2-(2,6-difluoro-3-methoxy-phenyl)-4-[(5-piperazin-1-yl-2-pyridyl)amino]-6H-1,6-naphthyridin-5-one]",≥ 7.00
12,"COc1ccc(F)c(-c2cc(Nc3ccc(N4CCC(O)CC4)cn3)c3c(=O)[nH]ccc3n2)c1F [I-92, 2-(2,6-difluoro-3-methoxyphenyl)-4-((5-(4-hydroxypiperidin-1-yl)pyridin-2-yl)amino)-1,6-naphthyridin-5(6H)-one]",6.00 to 7.00
13,"O=C(c1ccc(F)c(-c2cc(Nc3ccc(N4CCC(O)CC4)cn3)c3c(=O)[nH]ccc3n2)c1)N1CCCC1 [I-93, 2-[2-fluoro-5-(pyrrolidine-1-carbonyl)phenyl]-4-[[5-(4-hydroxy-1-piperidyl)-2-pyridyl]amino]-6H-1,6-naphthyridin-5-one]",≥ 7.00
14,"O=C(c1ccc(F)c(-c2cc(Nc3ccc(N4CCC(O)CC4)cn3)c3c(=O)[nH]ccc3n2)c1)N1CCCCC1 [I-94, 2-[2-fluoro-5-(piperidine-1-carbonyl)phenyl]-4-[[5-(4-hydroxy-1-piperidyl)-2-pyridyl]amino]-6H-1,6-naphthyridin-5-one]",≥ 7.00
15,"O=C(c1ccc(F)c(-c2cc(Nc3ccc(N4CCC(O)CC4)cn3)c3c(=O)[nH]ccc3n2)c1)N1CCC1 [I-95, 2-[5-(azetidine-1-carbonyl)-2-fluoro-phenyl]-4-[[5-(4-hydroxy-1-piperidyl)-2-pyridyl]amino]-6H-1,6-naphthyridin-5-one]",6.00 to 7.00
16,"CC(C)(C)c1ccc(F)c(-c2cc(Nc3ccc(N4CCC(O)CC4)cn3)c3c(=O)[nH]ccc3n2)c1 [I-96, 2-(5-tert-butyl-2-fluoro-phenyl)-4-[[5-(4-hydroxy-1-piperidyl)-2-pyridyl]amino]-6H-1,6-naphthyridin-5-one]",6.00 to 7.00
17,"O=c1[nH]ccc2nc(-c3cc(C4CCC4)ccc3F)cc(Nc3ccc(N4CCC(O)CC4)cn3)c12 [I-97, 2-(5-cyclobutyl-2-fluoro-phenyl)-4-[[5-(4-hydroxy-1-piperidyl)-2-pyridyl]amino]-6H-naphthyridin-5-one]",6.00 to 7.00

row,Compound,pIC50
1,"N#CCc1ccc(F)c(-c2cc(Nc3ccc(N4CCC(O)CC4)cn3)c3c(=O)[nH]ccc3n2)c1 [I-98, 2-[4-fluoro-3-[4-[[5-(4-hydroxy-1-piperidyl)-2-pyridyl]amino]-5-oxo-6H-1,6-naphthyridin-2-yl]phenyl] acetonitrile]",≥ 7.00
2,"CC(C)c1cccc(-c2cc(Nc3ccc(N4CCC(O)CC4)cn3)c3c(=O)[nH]ccc3n2)c1 [I-99, 4-[[5-(4-hydroxy-1-piperidyl)-2-pyridyl]amino]-2-(3-isopropyl-phenyl)-6H-1,6-naphthyridin-5-one]",6.00 to 7.00
3,"COc1cc(OC)cc(-c2cc(Nc3ccc(N4CCC(O)CC4)cn3)c3c(=O)[nH]ccc3n2)c1 [I-100, 2-(3,5-dimethoxyphenyl)-4-[[5-(4-hydroxy-1-piperidyl)-2-pyridyl]amino]-6H-1,6-naphthyridin-5-one]",≥ 7.00
4,"CC(C)c1ccc(Cl)c(-c2cc(Nc3ccc(N4CCC(O)CC4)cn3)c3c(=O)[nH]ccc3n2)c1 [I-101, 2-(2-chloro-5-isopropyl-phenyl)-4-[[5-(4-hydroxy-1-piperidyl)-2-pyridyl]amino]-6H-1,6-naphthyridin-5-one]",≥ 7.00
5,"CC1(c2ccc(F)c(-c3cc(Nc4ccc(N5CCC(O)CC5)cn4)c4c(=O)[nH]ccc4n3)c2)CC1 [I-102, 2-[2-fluoro-5-(1-methylcyclo-propyl)phenyl]-4-[[5-(4-hydroxy-1-piperidyl)-2-pyridyl]amino]-6H-1,6-naphthyridin-5-one]",≥ 7.00
6,"O=c1[nH]ccc2nc(-c3cc(C4COC4)ccc3F)cc(Nc3ccc(N4CCC(O)CC4)cn3)c12 [I-103, 2-[2-fluoro-5-(oxetan-3-yl)phenyl]-4-[[5-(4-hydroxy-1-piperidyl)-2-pyridyl]amino]-6H-1,6-naphthyridin-5-one]",≥ 7.00
7,"CC(C)(C#N)c1ccc(F)c(-c2cc(Nc3ccc(N4CCC(O)CC4)cn3)c3c(=O)[nH]ccc3n2)c1 [I-104, 2-[4-fluoro-3-[4-[[5-(4-hydroxy-1-piperidyl)-2-pyridyl]amino]-5-oxo-6H-1,6-naphthyridin-2-yl]phenyl]-2-methyl-propane-nitrile]",< 6.00
8,"N#CC1(c2ccc(F)c(-c3cc(Nc4ccc(N5CCC(O)CC5)cn4)c4c(=O)[nH]ccc4n3)c2)CC1 [I-105, 1-[4-fluoro-3-[4-[[5-(4-hydroxy-1-piperidyl)-2-pyridyl]amino]-5-oxo-6H-1,6-naphthyridin-2-yl]phenyl] cyclo-propane-carbonitrile]",< 6.00
9,"O=c1[nH]ccc2nc(-c3cc(OC(F)(F)F)ccc3F)cc(Nc3ccc(N4CCC(O)CC4)cn3)c12 [I-106, 2-[2-fluoro-5-(trifluoro-methoxy)phenyl]-4-[[5-(4-hydroxy-1-piperidyl)-2-pyridyl]amino]-6H-1,6-naphthyridin-5-one]",≥ 7.00
10,"O=c1[nH]ccc2nc(-c3cc4cc[nH]c4cc3F)cc(Nc3ccc(N4CCC(O)CC4)cn3)c12 [I-107, 2-(6-fluoro-1H-indol-5-yl)-4-[[5-(4-hydroxy-1-piperidyl)-2-pyridyl]amino]-6H-1,6-naphthyridin-5-one]",6.00 to 7.00
11,"CN(C(=O)C1CC1)c1ccc(-c2cc(Nc3ccc(N4CCC(O)CC4)cn3)c3c(=O)[nH]ccc3n2)c(F)c1 [I-108, N-[3-fluoro-4-[4-[[5-(4-hydroxy-1-piperidyl)-2-pyridyl]amino]-5-oxo-6H-1,6-naphthyridin-2-yl]phenyl]-N-methyl-cyclopropane-carboxamide]",≥ 7.00
12,"CC(C)c1ccc(F)c(-c2cc(Nc3ccc(N4CCN(C)CC4)cn3)c3c(=O)[nH]ccc3n2)c1 [I-109, 2-(2-fluoro-5-isopropyl-phenyl)-4-[[5-(4-methyl-piperazin-1-yl)-2-pyridyl]amino]-6H-1,6-naphthyridin-5-one]",≥ 7.00
13,"CC(C)c1ccc(F)c(-c2cc(Nc3ccc(N4CCNCC4)cn3)c3c(=O)[nH]ccc3n2)c1 [I-110, 2-(2-fluoro-5-isopropyl-phenyl)-4-[(5-piperazin-1-yl-2-pyridyl)amino]-6H-1,6-naphthyridin-5-one]",≥ 7.00
14,"O=C(Nc1ccc(-c2cc(Nc3ccc(N4CCC(O)CC4)cn3)c3c(=O)[nH]ccc3n2)c(F)c1)C1CCCCC1 [I-111, N-[3-fluoro-4-[4-[[5-(4-hydroxy-1-piperidyl)-2-pyridyl]amino]-5-oxo-6H-1,6-naphthyridin-2-yl]phenyl] cyclohexane carboxamide]",< 6.00
15,"COc1cc(-c2cc(Nc3ccc(N4CCC(O)CC4)cn3)c3c(=O)[nH]ccc3n2)c(F)cc1C(=O)N1CCCCC1 [I-112, 2-[2-fluoro-5-methoxy-4-(piperidine-1-carbonyl)phenyl]-4-[[5-(4-hydroxy-1-piperidyl)-2-pyridyl]amino]-6H-1,6-naphthyridin-5-one]",< 6.00
16,"Cc1c(C(=O)N2CCCCC2)ccc(-c2cc(Nc3ccc(N4CCC(O)CC4)cn3)c3c(=O)[nH]ccc3n2)c1F [I-113, 2-[2-fluoro-3-methyl-4-(piperidine-1-carbonyl)phenyl]-4-[[5-(4-hydroxy-1-piperidyl)-2-pyridyl]amino]-6H-1,6-naphthyridin-5-one]",6.00 to 7.00
